Measurements from patent publication US20220313701A1, “MODULATORS OF TREX1” (Constellation Pharmaceuticals, Inc., priority 2019, published 2022).

Experiments:
[1] = target: T1, human TREX2 (residues M44-A279) (Homo sapiens, UniProt Q9BQ50); assay: TREX2 Biochemical Assay (fluorescence assay, degradation of dsDNA substrate); conditions: 2.5 nM TREX2, 60 nM dsDNA substrate, 25 minutes at room temperature
T1 construct: human TREX2 (residues M44-A279, expressed in E. coli); His-Tev (His tag with TEV site) (N); made in house; host or cells: E. coli
T1 sequence (Q9BQ50 44-279 isoform Q9BQ50-1): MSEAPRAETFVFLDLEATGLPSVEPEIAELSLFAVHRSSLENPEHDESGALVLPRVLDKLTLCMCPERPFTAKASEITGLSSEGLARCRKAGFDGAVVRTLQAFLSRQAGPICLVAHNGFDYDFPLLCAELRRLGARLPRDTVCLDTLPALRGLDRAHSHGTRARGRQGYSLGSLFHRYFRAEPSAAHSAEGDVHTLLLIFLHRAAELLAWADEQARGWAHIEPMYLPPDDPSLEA
Method: Degradation of the dsDNA liberates free fluorophore to produce a fluorescent signal. Specifically, 7.5 μL of N-terminally His-Tev tagged human TREX2 (residues M44-A279, expressed in E. coli and purified in house) in reaction buffer (50 mM Tris (pH 7.4), 150 mM NaCl, 2 mM DTT, 0.1 mg/mL BSA, 0.01% (v/v) Tween-20 and 100 mM MgCl2) was added to a 384-well Black ProxiPlate Plus (Perkin Elmer) which already contained compound (150 nL) at varying concentrations as a 10 point dose-response in DMSO. To this was added 7.5 μL of dsDNA substrate (Strand A: 5′ TEX615/GCT AGG CAG 3′; Strand B: 5′ CTG CCT AGC/IAbRQSp (IDT)) in reaction buffer. Final concentrations were 2.5 nM TREX2, 60 nM dsDNA substrate in reaction buffer with 1.0% DMSO (v/v). After 25 minutes at room temperature, reactions were quenched by the addition of 5 μL of stop buffer (same as reaction buffer plus 200 mM EDTA). Final concentrations in the quenched reaction mixture were […] TREX2, 45 nM DNA and 50 mM EDTA in a volume of 20 μL. After a 5-minute incubation at room temperature, plates were read in a laser sourced Envision (Perkin-Elmer), measuring fluorescence at 615 nm following excitation w/570 nm light. IC50 values were calculated by comparing the measured fluorescence at 615 nm ratio relative to control wells pre-quenched w/stop buffer (100% inhibition) and no inhibitor (0% inhibition) controls as using non-linear least square four parameter fits and either Genedata or GraphPad Prism (GraphPad Software, Inc.).

[2] = target: T2, full length human TREX1 (Homo sapiens, UniProt Q9NSU2); assay: TREX1 Biochemical Assay (fluorescence assay, degradation of dsDNA substrate); conditions: 150 pM TREX1, 60 nM dsDNA substrate, 25 minutes at room temperature
T2 construct: N-terminally His-Tev tagged full length human TREX1; His-Tev (His tag with TEV site) (N); made in house; host or cells: E. coli
T2 sequence (Q9NSU2 1-314): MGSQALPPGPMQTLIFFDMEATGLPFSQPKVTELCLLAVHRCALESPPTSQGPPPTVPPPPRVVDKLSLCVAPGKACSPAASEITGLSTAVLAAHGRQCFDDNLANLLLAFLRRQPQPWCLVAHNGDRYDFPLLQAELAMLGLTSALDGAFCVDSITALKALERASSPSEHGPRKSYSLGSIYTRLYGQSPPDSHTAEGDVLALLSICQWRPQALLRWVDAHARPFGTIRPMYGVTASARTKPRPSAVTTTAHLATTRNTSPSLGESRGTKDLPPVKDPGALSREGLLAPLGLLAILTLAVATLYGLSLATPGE
Method: Degradation of the dsDNA liberates free fluorophore to produce a fluorescent signal. Specifically, 7.5 μL of N-terminally His-Tev tagged full length human TREX1 (expressed in E. coli and purified in house) in reaction buffer (50 mM Tris (pH 7.4), 150 mM NaCl, 2 mM DTT, 0.1 mg/mL BSA, 0.01% (v/v) Tween-20 and either 100 mM MgCl2) was added to a 384-well Black ProxiPlate Plus (Perkin Elmer) which already contained compound (150 nL) at varying concentrations as a 10 point dose-response in DMSO. To this was added 7.5 μL of dsDNA substrate (Strand A: 5′ TEX615/GCT AGG CAG 3′; Strand B: 5′ CTG CCT AGC/IAbRQSp (Integrated DNA Technologies)) in reaction buffer. Final concentrations were 150 pM TREX1, 60 nM dsDNA substrate in reaction buffer with 1.0% DMSO (v/v). After 25 minutes at room temperature, reactions were quenched by the addition of 5 μL of stop buffer (same as reaction buffer plus 200 mM EDTA). Final concentrations in the quenched reaction were 112.5 pM TREX1, 45 nM DNA and 50 mM EDTA in a volume of 20 μL. After a 5-minute incubation at room temperature, plates were read in a laser sourced Envision (Perkin-Elmer), measuring fluorescence at 615 nm following excitation w/570 nm light. IC50 values were calculated by comparing the measured fluorescence at 615 nm ratio relative to control wells pre-quenched w/stop buffer (100% inhibition) and no inhibitor (0% inhibition) controls as using non-linear least square four parameter fits and either Genedata or GraphPad Prism (GraphPad Software, Inc.).

SMILES | IC50 [1] | IC50 [2]
OC1(c2ccc(F)cc2)CCN(c2cncc(-c3cnn(Cc4ccccc4)c3)n2)CC1 [Example 14, 1-(6-(1-benzyl-1H-pyrazol-4-yl)pyrazin-2-yl)-4-(4-fluorophenyl)piperidin-4-ol] | > 100 µM | 1 to 10 µM
Cc1ccc(-c2cncc(N3CCC(O)(c4ccc(F)cc4)CC3)n2)cn1 [Example 15, 4-(4-fluorophenyl)-1-(6-(6-methylpyridin-3-yl)pyrazin-2-yl)piperidin-4-ol] | > 100 µM | 0.1 to 1 µM
OC1(c2ccc(F)cc2)CCN(c2cncc(-c3cccnc3)n2)CC1 [Example 16, 4-(4-fluorophenyl)-1-(6-(pyridin-3-yl)pyrazin-2-yl)piperidin-4-ol] | > 100 µM | 1 to 10 µM
Cc1ccc(-c2cncc(N3CCC(O)(c4ccc(F)c(F)c4)CC3)n2)c(C)n1 [Example 17, 4-(3,4-difluorophenyl)-1-(6-(2,6-dimethylpyridin-3-yl)pyrazin-2-yl)piperidin-4-ol] | 10 to 100 µM | 0.1 to 1 µM
OC1(c2ccc(F)cc2)CCN(c2cncc(-c3cncnc3)n2)CC1 [Example 18, 4-(4-fluorophenyl)-1-(6-(pyrimidin-5-yl)pyrazin-2-yl)piperidin-4-ol] | > 100 µM | 1 to 10 µM
Cc1noc(C)c1-c1cncc(N2CCC(O)(c3ccc(F)cc3)CC2)n1 [Example 19, 1-(6-(3,5-dimethylisoxazol-4-yl)pyrazin-2-yl)-4-(4-fluorophenyl)piperidin-4-ol] | > 100 µM | 1 to 10 µM
CN(C)C(=O)c1cccc(-c2cncc(N3CCC(O)(c4ccc(F)cc4)CC3)n2)c1 [Example 20, 3-(6-(4-(4-fluorophenyl)-4-hydroxypiperidin-1-yl)pyrazin-2-yl)-N,N-dimethylbenzamide] | > 100 µM | 1 to 10 µM
CNC(=O)c1ccc(-c2cncc(N3CCC(O)(c4ccc(F)cc4)CC3)n2)cc1 [Example 21, 4-(6-(4-(4-fluorophenyl)-4-hydroxypiperidin-1-yl)pyrazin-2-yl)-N-methylbenzamide] | > 100 µM | 1 to 10 µM
CS(=O)(=O)c1ccc(-c2cncc(N3CCC(O)(c4ccc(F)cc4)CC3)n2)cc1 [Example 22, 4-(4-fluorophenyl)-1-(6-(4-(methylsulfonyl)phenyl)pyrazin-2-yl)piperidin-4-ol] | > 100 µM | 1 to 10 µM
N#Cc1ccccc1-c1cncc(N2CCC(O)(c3ccc(F)cc3)CC2)n1 [Example 23, 2-(6-(4-(4-fluorophenyl)-4-hydroxypiperidin-1-yl)pyrazin-2-yl)benzonitrile] | > 100 µM | 1 to 10 µM
N#Cc1cccc(-c2cncc(N3CCC(O)(c4ccc(F)cc4)CC3)n2)c1 [Example 24, 3-(6-(4-(4-fluorophenyl)-4-hydroxypiperidin-1-yl)pyrazin-2-yl)benzonitrile] | > 100 µM | > 10 µM
OC1(c2ccc(F)cc2)CCN(c2cncc(-c3ccccc3F)n2)CC1 [Example 25, 4-(4-fluorophenyl)-1-(6-(2-fluorophenyl)pyrazin-2-yl)piperidin-4-ol] | > 100 µM | 1 to 10 µM
OC1(c2ccc(F)cc2)CCN(c2cncc(-c3cccc(F)c3)n2)CC1 [Example 26, 4-(4-fluorophenyl)-1-(6-(3-fluorophenyl)pyrazin-2-yl)piperidin-4-ol] | > 100 µM | 1 to 10 µM
OC1(c2ccc(F)cc2)CCN(c2cncc(-c3ccc(F)cc3)n2)CC1 [Example 27, 4-(4-fluorophenyl)-1-(6-(4-fluorophenyl)pyrazin-2-yl)piperidin-4-ol] | > 100 µM | > 10 µM
COc1ccccc1-c1cncc(N2CCC(O)(c3ccc(F)cc3)CC2)n1 [Example 28, 4-(4-fluorophenyl)-1-(6-(2-methoxyphenyl)pyrazin-2-yl)piperidin-4-ol] | > 100 µM | > 10 µM
COc1ccc(-c2cncc(N3CCC(O)(c4ccc(F)cc4)CC3)n2)cc1 [Example 29, 4-(4-fluorophenyl)-1-(6-(4-methoxyphenyl)pyrazin-2-yl)piperidin-4-ol] | > 100 µM | > 10 µM
N#Cc1ccc(-c2cncc(N3CCC(O)(c4ccc(F)cc4)CC3)n2)cc1 [Example 30, 4-(6-(4-(4-fluorophenyl)-4-hydroxypiperidin-1-yl)pyrazin-2-yl)benzonitrile] | > 100 µM | 1 to 10 µM
OC1(c2ccc(F)cc2)CCN(c2cncc(-c3ccccc3C(F)(F)F)n2)CC1 [Example 31, 4-(4-fluorophenyl)-1-(6-(2-(trifluoromethyl)phenyl)pyrazin-2-yl)piperidin-4-ol] | > 100 µM | 1 to 10 µM
OC1(c2ccc(F)cc2)CCN(c2cncc(-c3cccc(C(F)(F)F)c3)n2)CC1 [Example 32, 4-(4-fluorophenyl)-1-(6-(3-(trifluoromethyl)phenyl)pyrazin-2-yl)piperidin-4-ol] | > 100 µM | > 10 µM
OC1(c2ccc(F)cc2)CCN(c2cncc(-c3ccc(C(F)(F)F)cc3)n2)CC1 [Example 33, 4-(4-fluorophenyl)-1-(6-(4-(trifluoromethyl)phenyl)pyrazin-2-yl)piperidin-4-ol] | > 100 µM | > 10 µM
Cc1ccc(-c2cncc(N3CCC(O)(c4ccc(F)cc4)CC3)n2)cc1 [Example 34, 4-(4-fluorophenyl)-1-(6-(p-tolyl)pyrazin-2-yl)piperidin-4-ol] | > 100 µM | 1 to 10 µM
OC1(c2ccc(F)cc2)CCN(c2cncc(-c3ccncc3)n2)CC1 [Example 35, 4-(4-fluorophenyl)-1-(6-(pyridin-4-yl)pyrazin-2-yl)piperidin-4-ol] | > 100 µM | 1 to 10 µM
Cn1cc(-c2nccc(N3CCC(O)(c4ccc(F)cc4)CC3)n2)cn1 [Example 36, 4-(4-fluorophenyl)-1-(2-(1-methyl-1H-pyrazol-4-yl)pyrimidin-4-yl)piperidin-4-ol] | > 100 µM | 0.1 to 1 µM
Cn1cc(-c2ccnc(N3CCC(O)(c4ccc(F)cc4)CC3)n2)cn1 [Example 37, 4-(4-fluorophenyl)-1-(4-(1-methyl-1H-pyrazol-4-yl)pyrimidin-2-yl)piperidin-4-ol] | > 100 µM | 1 to 10 µM
COC(=O)c1cc(-c2cnn(C)c2)nc(N2CCC(O)(c3ccc(F)cc3)CC2)c1 [Example 38, methyl 2-(4-(4-fluorophenyl)-4-hydroxypiperidin-1-yl)-6-(1-methyl-1H-pyrazol-4-yl)isonicotinate] | > 100 µM | 1 to 10 µM
